# Target: T1, human ALK5 (kinase domain, ALK5 T204D) (Homo sapiens, UniProt P36897, T204D)
# T1 construct: The kinase domain of human ALK5 (amino acids 200-503); made in house; host or cells: insect cells (baculovirus)
# T1 sequence (P36897 200-503 T204D): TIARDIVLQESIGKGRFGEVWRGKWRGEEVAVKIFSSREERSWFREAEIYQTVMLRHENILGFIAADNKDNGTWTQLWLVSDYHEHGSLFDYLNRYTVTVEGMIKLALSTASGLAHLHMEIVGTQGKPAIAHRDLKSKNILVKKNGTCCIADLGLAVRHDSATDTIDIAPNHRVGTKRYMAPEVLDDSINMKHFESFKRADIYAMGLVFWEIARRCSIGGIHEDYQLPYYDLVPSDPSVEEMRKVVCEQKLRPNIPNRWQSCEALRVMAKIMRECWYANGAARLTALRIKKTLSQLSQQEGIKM
# Assay: ALK5 kinase assay ([33P] phosphate incorporation into casein)
# Assay type: biochemical
# Conditions: casein substrate, 1 μM unlabelled ATP
# Method in brief: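 His-tagged human ALK5 T204D kinase domain (aa 200-503, constitutively active, baculovirus/insect-cell expressed), 50 ng/well, preincubated 10 min with compound and dephosphorylated casein (200 μg/well) in Tris pH 7.4/MgCl2/MnCl2. Reaction started with 1 μM ATP plus [33P]ATP, 50 min at room temperature, EDTA-stopped; casein-bound 33P counted by scintillation after filter capture.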
row,IC50 [nM],Compound
1,99,"Cc1cccc(-c2nc(-c3cncc(-c4cccc(C(C)(C)N)c4)c3)c3cc[nH]c3n2)n1 [Example 85, 1-Methyl-1-(3-{5-[2-(6-methyl-pyridin-2-yl)-7H-pyrrolo[2,3-d]pyrimidin-4-yl]-pyridin-3-yl}-phenyl)-ethylamine]"
2,8,"Cc1cccc(-c2cc(-c3cncc(-c4cccc(CN)c4)c3)c3cc[nH]c3n2)n1 [Example 86, 3-{5-[6-(6-Methyl-pyridin-2-yl)-1H-pyrrolo[2,3-b]pyridin-4-yl]-pyridin-3-yl}-benzylamine]"
3,10,"Cc1cccc(-c2nc(-c3cncc(-c4ccc(C5CNCCN5)cc4)c3)c3cc[nH]c3n2)n1 (stereo not drawn) [Example 87, 2-(6-Methyl-pyridin-2-yl)-4-[5-(4-piperazin-2-yl-phenyl)-pyridin-3-yl]-7H-pyrrolo[2,3-d]pyrimidine]"
4,20,"Cc1cccc(-c2cc(-c3cncc(-c4ccc(CN5CCOCC5)cc4)c3)c3cc[nH]c3n2)n1 [Example 88, 6-(6-Methyl-pyridin-2-yl)-4-[5-(4-morpholin-4-ylmethyl-phenyl)-pyridin-3-yl]-1H-pyrrolo[2,3-b]pyridine]"
5,79,"Cc1cccc(-c2cc(-c3cncc(C4=CCCC4)c3)c3cc[nH]c3n2)n1 [Example 89, 4-(5-Cyclopent-1-enyl-pyridin-3-yl)-6-(6-methyl-pyridin-2-yl)-1H-pyrrolo[2,3-b]pyridine]"
6,66,"Cc1cccc(-c2cc(-c3cncc(-c4cccc(CN5CCOCC5)c4)c3)c3cc[nH]c3n2)n1 [Example 90, 6-(6-Methyl-pyridin-2-yl)-4-[5-(3-morpholin-4-ylmethyl-phenyl)-pyridin-3-yl]-1H-pyrrolo[2,3-b]pyridine]"
7,109,"Cc1cccc(-c2cc(-c3cncc(-c4cncc(CN(C)C)c4)c3)c3cc[nH]c3n2)n1 [Example 91, Dimethyl-{5′-[6-(6-methyl-pyridin-2-yl)-1H-pyrrolo[2,3-b]pyridin-4-yl]-[3,3′]bipyridinyl-5-ylmethyl}-amine]"
8,103,"CNCc1cncc(-c2cncc(-c3cc(-c4cccc(C)n4)nc4[nH]ccc34)c2)c1 [Example 92, Methyl-{5′-[6-(6-methyl-pyridin-2-yl)-1H-pyrrolo[2,3-b]pyridin-4-yl]-[3,3′]bipyridinyl-5-ylmethyl}-amine]"
9,24,"Cc1cccc(-c2cc(-c3cncc(-c4cccc(CO)c4)c3)c3cc[nH]c3n2)n1 [Example 93, (3-{5-[6-(6-Methyl-pyridin-2-yl)-1H-pyrrolo[2,3-b]pyridin-4-yl]-pyridin-3-yl}-phenyl)-methanol]"
10,191,"CSc1cncc(-c2nc(-c3cccc(C)n3)nc3[nH]ccc23)c1 [Example 94, 2-(6-Methyl-pyridin-2-yl)-4-(5-methylsulfanyl-pyridin-3-yl)-7H-pyrrolo[2,3-d]pyrimidine]"
11,259,"Cc1cccc(-c2nc(-c3cncc(N)c3)c3cc[nH]c3n2)n1 [Example 95, 5-[2-(6-Methyl-pyridin-2-yl)-7H-pyrrolo[2,3-d]pyrimidin-4-yl]-pyridin-3-ylamine]"
12,751,"Cc1cncc(-c2nc(-c3cccc(C)n3)nc3[nH]ccc23)c1 [Example 96, 4-(5-Methyl-pyridin-3-yl)-2-(6-methyl-pyridin-2-yl)-7H-pyrrolo[2,3-d]pyrimidine]"
13,8,"Cc1cccc(-c2nc(-c3cncc(-c4ccc(CN5CC[C@@H](N(C)C)C5)cc4)c3)c3cc[nH]c3n2)n1 [Example 97, Dimethyl-[(R)-1-(4-{5-[2-(6-methyl-pyridin-2-yl)-7H-pyrrolo[2,3-d]pyrimidin-4-yl]-pyridin-3-yl}-benzyl)-pyrrolidin-3-yl]-amine]"
14,799,"Cc1cccc(-c2nc(-c3cncc(C#N)c3)c3cc[nH]c3n2)n1 [Example 98, 5-[2-(6-Methyl-pyridin-2-yl)-7H-pyrrolo[2,3-d]pyrimidin-4-yl]-nicotinonitrile]"
15,14,"Cc1cccc(-c2nc(-c3cncc(-c4cccc(C5CNCCN5)c4)c3)c3cc[nH]c3n2)n1 (stereo not drawn) [Example 99, 2-(6-Methyl-pyridin-2-yl)-4-[5-(3-piperazin-2-yl-phenyl)-pyridin-3-yl]-7H-pyrrolo[2,3-d]pyrimidine]"

# Reference: patent US8314112B2 (Novartis AG, priority 2008, dated 2012)
